Data published in ChEMBL document CHEMBL1148038, “Inhibition of Botrytis cinerea by New Sesquiterpenoid Compounds Obtained from the Rearrangement of Isocaryophyllene” (1994).
The source made the active and inactive calls. No cut-off for these calls is given here.

What was measured:
Botrytis cinerea [1] = test: Antifungal activity against Botrytis cinerea at 130 ppm for 5 days by centerpoint incubation disk assay; assay type: functional; settings: 120 h, read-out: IZ
Botrytis cinerea [2] = test: Antifungal activity against Botrytis cinerea at 100 ppm for 3 days by centerpoint incubation disk assay; assay type: functional, organism-based
Botrytis cinerea [3] = test: Antifungal activity against Botrytis cinerea by centerpoint incubation disk assay; assay type: functional, organism-based
Botrytis cinerea [4] = test: Antifungal activity against Botrytis cinerea at 17 ppm for 3 days by centerpoint incubation disk assay; assay type: functional; settings: 72 h, read-out: IZ

| SMILES | zone of inhibition at 130 ppm (Botrytis cinerea [1]) [mm] | Activity (Botrytis cinerea [2]) | Activity (Botrytis cinerea [3]) | zone of inhibition at 17 ppm (Botrytis cinerea [4]) [mm] |
| --- | --- | --- | --- | --- |
| CC1(C)C[C@@]2(O)[C@]3(C)CCC[C@@]2(C)[C@H]1CC3 [ACETYLGINSENOL] | 6 | Active |  |  |
| CC1=CC[C@@H]2[C@H]3[C@@H]1CC[C@@]3(C)CC2(C)C |  |  | inactive |  |
| CC1(C)C[C@@]2(C)CCC[C@]3(C)CC[C@@H]1[C@]32O |  | Active |  | 20 |
